Measured values reported in publication PMC7801115, “Preclinical in vitro screening of newly synthesised amidino substituted benzimidazoles and benzothiazoles” (Journal of Enzyme Inhibition and Medicinal Chemistry, 2021).

Tests used:
[1] = Metabolic stability in liver microsomes; type: in vitro ADME; conditions: 60 min
Method: Tested compounds (final concentration of 1 µM, 0.1% DMSO), as well as testosterone and propranolol as positive controls and caffeine as negative control were incubated in phosphate buffer (50 mM, pH 7.4) for 60 min at 37 °C with liver microsomes (human and mouse) in the absence and presence of the NADPH cofactor. The NADPH generating system was prepared in phosphate buffer and consisted of nicotinamide adenine dinucleotide phosphate (NADP, 0.38 mM), glucose-6-phosphate (1.49 mM), glucose-6-phosphate dehydrogenase (1.5 U) and magnesium chloride (0.1 mM). Aliquots were taken at different time points (0, 10, 20, 30, 45 and 60 min) and reaction was terminated by addition of a MeCN/MeOH (2:1) mixture, containing diclofenac as internal standard. Samples were then centrifuged (at 4500 rpm, at 4 °C, for 30 min) and resulting supernatants were subjected to LC-MS/MS analysis. The in vitro half life (t½) was determined from the slope of the linear regression of ln % parent compound remaining versus incubation time. In vitro intrinsic clearance, expressed as µl/min/mg liver, was determined from in vitro half life (t½) and normalised for the protein concentration in the incubation mixture. Predicted in vivo hepatic clearance was determined from in vitro intrinsic clearance assuming 52.5 mg of protein/g of liver and using constant values for liver weight/body weight [g/kg] (25.7 for human, 87.5 for mouse) and liver blood flow (LBF) [ml/min/kg] (21 for human and 131 for mouse).
All ADME samples were analysed on a Sciex API 4000 or Sciex API4500 Triple Quadrupole Mass Spectrometer (Sciex, Framingham, MA, USA) coupled to a UHPLC System (Shimadzu Nexera X2; Shimadzu, Kyoto, Japan). Samples were injected onto an UPLC column (HALO2 C18, 2.1 × 20 mm, 2 µm or Phenomenex Luna Omega Polar C18, 30 × 2.1 mm, 1.6 µm) and eluted with a gradient at temperature of 50 °C. The mobile phase was composed of acetonitrile (with 0.1% formic acid) and 0.1% formic acid in deionised water. A total run time was 1 or 1.5 min, with the flow rate of 0.7 ml/min (under gradient conditions). A positive ion mode with turbo spray, an ion source temperature of 500 °C and a dwell time of 150 ms were utilised for mass spectrometric detection. Multiple reaction monitoring (MRM) was used at the specific transitions for each compound/control tested: compound 5c: 361.9 → 304.9; compound 5d: 344.8 → 287.9; compound 5e: 349.8 → 292.9; compound 5 g: 350.8 → 293.9; compound 5 h: 344.0 → 286.9; compound 6a: 276.9 → 220.0; compound 5 b: 319.0 → 262.0; compound 6 b: 302.1 → 245.1; compound 6c: 344.9 → 288.0; compound 6d: 333.0 → 276.0; compound 6e: 316.1 → 259.0; compound 6f: 327.1 → 270.0; compound 6 g: 377.1 → 320.1; testosterone: 289.3→ 97.1; propranolol: 260.1 → 182.8; caffeine: 195.2 → 138.1; acebutolol: 337.2 → 116.2, nicardipine: 480.2 → 315.0; verapamil: 455.4 → 165.1; amprenavir: 506.2 → 245.4; diclofenac: 296.1 → 213.7 or 296.2 → 215.3; eucatropine: 292.2 → 109.1; benfluorex: 352.1 → 230.3, and warfarin: 309.2 → 163.2

[2] = system: A549; assay: BrdU proliferation assay, 3D cell culture; type: cell-based; conditions: Homo sapiens, A549, 3D cell culture, ±SD, N = 2
Method: (§1) Cells were grown in 96 well Perfecta 3 D hanging drop plates 5000 cell/well for 4 days until spheres were formed (and checked under the microscope). After sphere formation cells were treated with compounds followed by 72 h incubation. Cell viability assay was performed according to the manufacturer’s instruction, using CellTiter GLO 3 D for 3 D cell culture (Promega); cell incubation was 5 min on the shaker followed by 25 min incubation in the dark. Plates were read using PE EnVision luminescence. The results for each of tested compounds are reported as growth percentages from two independent concentrations curves compared with the untreated control cells after drug exposure.
(§2) Proliferation assay was performed using Cell Proliferation ELISA, BrdU (Sigma, St. Louis, MO, USA). Briefly, 48 h hours after compound addition, 10 µM of BrdU was added to each well and incubated for following 24 h. After incubation, single cell suspension was made for 3 D cell culture in the new 96 well plate. Plates were centrifuged and supernatants were removed from each plate (for 2 D and 3 D cell culture) followed by 60 min incubation at 60° C. The rest of the proliferation assay was performed according to the manufacturer instructions.
(§3) Calculation of IC50 data, curves and QC analysis is made by using Excel tools and GraphPadPrism software (La Jolla, CA), v. 5.03. In brief, individual concentration–effect curves are generated by plotting the logarithm of the tested concentration of tested compounds (X) versus corresponding percent inhibition values (Y) using least squares (ordinary) fit. […] QC criteria parameters (Z', S:B, R2, HillSlope) were checked for every IC50 curve.

[3] = system: NCI-H358; assay: BrdU proliferation assay, 3D cell culture; type: cell-based; conditions: Homo sapiens, NCI-H358, 3D cell culture, ±SD, N = 2
Method: as §1, §2, §3

[4] = Kinetic solubility; type: physicochemical; conditions: aqueous buffer, kinetic from dmso stock, phosphate buffer 50 mM, pH 7.4, 1% DMSO, 37 °C
Method: Test compounds and assay controls (sulfaphenazole and α-naphtoflavone) were serially diluted in DMSO by factor 3.3x, 3x, 3.3x and 3x, resulting in a total of 5 different concentrations. Phosphate buffer (50 mM, pH 7.4) was spiked with diluted test compounds and controls with final concentration range in the assay as follows: 100, 30, 10, 3 and 1 µM (1% DMSO). Plate was then incubated by gentle shaking (200–300 rpm) for 1 h and 45 min at 37 °C. After additional15 min on room temperature (without shaking), plate absorbance at 620 nm was measured with microplate reader Tecan, Infinite F500 (total incubation time = 2 h).

[5] = system: A549; assay: BrdU proliferation assay, 2D cell culture; type: cell-based; conditions: Homo sapiens, A549, 2D cell culture, ±SD, N = 2
Method: Cells were grown in 96 well cell star polystyrene plates. 10,000 cells/well were seeded in wells 4 h prior the treatment with different compounds concentrations and incubated for 72 h. A cell viability assay was performed according to the manufacturer’s instruction, using CellTiter 96 aqueous solution, MTS kit (Promega, Madison, WI, USA). After 0.5–2 h of cell incubation with MTS in 2 D cell culture, the plates were read using PE EnVision absorbance at 490 nm. The results for each of tested compounds are reported as growth percentages from two independent concentrations curves compared with the untreated control cells after drug exposure. Since we prefer homogeneous assays (mix and read procedures) and therefore MTS is more practical (one step less than MTT). MTS is more sensitive and accurate in comparison with MTT assay.
as §2, §3

Structure (SMILES) | Microsomes (1 µM) Predicted in vivo hep CL, Human [1] [%LBF] | IC50 [2] [µM] | IC50 [3] [µM] | solubility kinetic at 2 h [4] [µM] | IC50 [5] [µM] | Microsomes (1 µM) Predicted in vivo hep CL, Mouse [1] [%LBF]
c1ccc2c(c1)cc(-c1nc3cc(C4=NCCCN4)ccc3[nH]1)c1ccccc12 [Compound 6g, 2-(Phenanthrene-9-yl)-5(6)–(3,4,5,6-tetrahydropyrimidin-1-ium-2-yl)benzimidazole chloride] | <30 | > 100 | > 100 | 30 to 100 | > 50 | 
N#Cc1ccc(-c2nc3cc(C4=NCCCN4)ccc3[nH]2)cc1 [Compound 6b, 2–(4-Cyanophenyl)-5(6)–(3,4,5,6-tetrahydropyrimidin-1-ium-2-yl)benzimidazole chloride] | <30 | > 100 | > 100 | > 100 | > 50 | <30
Cl.c1ccc2sc(-c3nc4ccc(C5=NCCCN5)cc4s3)cc2c1 [Compound 5e, 2-(Benzo[b]thiophen-2-yl)-6–(3,4,5,6-tetrahydropyrimidin-1-ium-2-yl)benzothiazole chloride] | <30 | 23 ± 6.24 | 5 ± 0.81 | 30 to 100 | 16 ± 0.39 | 
c1ccc2cc(-c3nc4cc(C5=NCCCN5)ccc4[nH]3)ccc2c1 [Compound 6f, 2-(Naphthalene-2-yl)-5(6)–(3,4,5,6-tetrahydropyrimidin-1-ium-2-yl)benzimidazole chloride] | <30 | > 100 | > 100 | 30 to 100 | > 50 | 77
Cl.c1ccc2sc(-c3nc4ccc(C5=NCCCN5)cc4s3)nc2c1 [Compound 5g, 2-(Benzothiazole-2-yl)-6–(3,4,5,6-tetrahydropyrimidin-1-ium-2-yl)benzothiazole chloride] | <30 | 14 ± 3.07 | 7 ± 2.33 | 30 to 100 | 7 ± 2.31 | <30
Cl.c1ccc2nc(-c3nc4ccc(C5=NCCCN5)cc4s3)ccc2c1 [Compound 5d, 2-(Quinoline-2-yl)-6–(3,4,5,6-tetrahydropyrimidin-1-ium-2-yl)benzothiazole chloride] | <30 | 16 ± 1.3 | 13 ± 1.65 | 30 to 100 | 1 | <30
c1ccc2sc(-c3nc4cc(C5=NCCCN5)ccc4[nH]3)cc2c1 [Compound 6d, 2-(Benzo[b]thiophen-2-yl)-5(6)–(3,4,5,6-tetrahydropyrimidin-1-ium-2-yl)benzimidazole chloride] | <30 | > 100 | > 100 | 10 to 30 | > 50 | 71
FC(F)(F)c1ccc(-c2nc3cc(C4=NCCCN4)ccc3[nH]2)cc1 [Compound 6c, 2–(4-Trifluoromethylphenyl)-5(6)–(3,4,5,6-tetrahydropyrimidin-1-ium-2-yl)benzimidazole chloride] | <30 | > 100 | > 100 | > 100 | > 50 | <30
Cl.N#Cc1ccc(-c2nc3ccc(C4=NCCCN4)cc3s2)cc1 [Compound 5b, 2–(4-Cyanophenyl)-6–(3,4,5,6-tetrahydropyrimidin-1-ium-2-yl)benzothiazole chloride] | <30 | 87 ± 0.11 | > 100 | > 100 | > 50 | <30
c1ccc2c(-c3nc4ccc(C5=NCCCN5)cc4[nH]3)c[nH]c2c1 [Compound 6e, 2-(1H-Indol-3-yl)-5(6)–(3,4,5,6-tetrahydropyrimidin-1-ium-2-yl)benzimidazole chloride] | <30 | > 100 | > 100 | 10 to 30 | > 50 | 78
Cl.c1ccc2cc(-c3nc4ccc(C5=NCCCN5)cc4s3)ccc2c1 [Compound 5h, 2-(Naphthalene-2-yl)-6–(3,4,5,6-tetrahydropyrimidin-1-ium-2-yl)benzothiazole chloride] | <30 | 14 ± 0.06 | 1 ± 0.81 | 10 to 30 | 10 ± 0.78 | <30
Cl.FC(F)(F)c1ccc(-c2nc3ccc(C4=NCCCN4)cc3s2)cc1 [Compound 5c, 2–(4-Trifluoromethylphenyl)-6–(3,4,5,6-tetrahydropyrimidin-1-ium-2-yl)benzothiazole chloride] | <30 | 13 ± 0.78 | 4.31 | > 100 | 48 ± 0.73 | <30
c1ccc(-c2nc3cc(C4=NCCCN4)ccc3[nH]2)cc1 [Compound 6a, 2-Phenyl-5(6)–(3,4,5,6-tetrahydropyrimidin-1-ium-2-yl)benzimidazole chloride] | 56 | 12 ± 0.28 | 3 ± 1.41 | > 100 | 11 ± 5.56 | 41
